According to US10124004B2, “Pyrido[3,4-d]pyrimidine derivative and pharmaceutically acceptable salt thereof” (Teijin Pharma Limited, priority 2015, dated 2018):

Legend:
CDK4/cyclin D3 = target: T1, CDK4/cyclin D3 (Homo sapiens, UniProt P11802); assay: Human CDK4/cyclin D3 inhibitory activity (QS S Assist CDK4/Cyclin D3_FP Kit, IMAP fluorescence polarization); assay type: biochemical; conditions: Human CDK4/cyclin D3 inhibitory activity; read-out: CDK4 Activity symbol
T1 construct: purchased Carna Biosciences, Inc. QS S Assist CDK4/Cyclin D3_FP Kit
T1 sequence (P11802 whole entry): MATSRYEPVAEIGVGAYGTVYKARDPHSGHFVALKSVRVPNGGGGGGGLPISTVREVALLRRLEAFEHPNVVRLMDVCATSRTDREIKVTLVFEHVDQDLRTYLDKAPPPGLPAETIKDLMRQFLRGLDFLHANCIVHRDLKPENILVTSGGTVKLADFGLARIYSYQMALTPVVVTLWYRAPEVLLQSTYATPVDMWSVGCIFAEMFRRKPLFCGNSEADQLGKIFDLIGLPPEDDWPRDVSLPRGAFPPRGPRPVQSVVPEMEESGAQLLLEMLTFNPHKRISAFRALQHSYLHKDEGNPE
T1 sequence (P30281 whole entry partner): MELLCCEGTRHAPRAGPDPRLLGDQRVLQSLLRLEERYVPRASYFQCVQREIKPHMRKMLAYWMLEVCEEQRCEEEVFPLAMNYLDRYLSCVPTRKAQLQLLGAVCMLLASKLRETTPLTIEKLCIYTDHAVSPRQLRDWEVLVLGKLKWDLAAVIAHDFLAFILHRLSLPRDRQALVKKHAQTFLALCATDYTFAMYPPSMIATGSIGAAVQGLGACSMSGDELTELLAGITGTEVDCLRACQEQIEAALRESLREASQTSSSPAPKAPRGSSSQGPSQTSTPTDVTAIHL
Procedure, shortened: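 Percent inhibition, relative to DMSO with and without enzyme, was curve-fitted to give IC50 from polarization (ex 485, em 535 nm). The 45-min room-temperature reaction used 12.5-25 ng/well enzyme, kit ATP/substrate/metal mix, and HEPES pH 7.4 buffer with Tween20 and DTT, followed by 30-min IMAP binding in the dark.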

CDK2/cyclin A2 = target: T2, CDK2/cyclin A2 (Homo sapiens, UniProt P24941); assay: Human CDK2/cyclin A2 inhibitory activity (QS S Assist CDK2/Cyclin A2_FP Kit, IMAP fluorescence polarization); assay type: biochemical; conditions: Human CDK2/cyclin A2 inhibitory activity; read-out: CDK2 Activity symbol
T2 construct: purchased Carna Biosciences, Inc. QS S Assist CDK2/Cyclin A2_FP Kit
Procedure, shortened: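 Kinase activity read as fluorescence polarization (485/535 nm) after phosphorylated fluorescent substrate binds IMAP reagent (30 min, RT, dark). Enzyme (2.5 ng/well) reacted 60 min at RT with ATP/substrate/metal in HEPES pH 7.4 buffer with Tween 20 and DTT; no-enzyme wells define 0% activity; IC50 by curve fit.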

SMILES	IC50 (CDK4/cyclin D3) [nM]	IC50 (CDK2/cyclin A2) [nM]
CC(C)Nc1nc(C(F)F)cc2cnc(Nc3ccc(-n4cnnn4)cn3)nc12 [Compound 211]	10 to 100	10 to 100
COCC(C)(C)Nc1nc([C@@H](C)O)cc2cnc(Nc3ccc(N4CCOCC4)nn3)nc12 [Compound 216]	10 to 100	≥ 100
COCC(C)(C)Nc1nc([C@@H](C)O)cc2cnc(Nc3ccc(CC(N)=O)cn3)nc12 [Compound 222]	10 to 100	≥ 100
COCC(C)(C)Nc1nc([C@@H](C)O)cc2cnc(Nc3ccc(CCO)cn3)nc12 [Compound 228]	10 to 100	≥ 100
CO[C@H](C)c1cc2cnc(Nc3ccc(CC(N)=O)cn3)nc2c(NC(C)C)n1 [Compound 231]	10 to 100	≥ 100
COCC(C)(C)Nc1nc([C@@H](C)O)cc2cnc(Nc3ccc(NCCO)nn3)nc12 [Compound 235]	10 to 100	≥ 100
CO[C@H](C)c1cc2cnc(Nc3ccc(CN4CCNCC4=O)cn3)nc2c(NC(C)C)n1 [Compound 237]	10 to 100	≥ 100
COCCNCc1ccc(Nc2ncc3cc([C@@H](C)O)nc(NC(C)(C)COC)c3n2)nc1 [Compound 242]	10 to 100	≥ 100
COCC(C)(C)Nc1nc([C@@H](C)O)cc2cnc(Nc3ccc(CN4CCNCC4=O)cn3)nc12 [Compound 248]	10 to 100	≥ 100
C[C@@H](O)c1cc2cnc(Nc3ccc(CN4CCNCC4)cn3)nc2c(N[C@@H]2CCCOC2)n1 [Compound 257]	< 10	≥ 100
C[C@@H](O)c1cc2cnc(Nc3ccc(CN4CCNCC4)cn3)nc2c(N[C@H]2CCOC2)n1 [Compound 258]	< 10	≥ 100
C[C@@H](O)c1cc2cnc(Nc3ccc(CN4CCNCC4)cn3)nc2c(N[C@@H]2CCOC2)n1 [Compound 259]	< 10	≥ 100
CC(C)Nc1nc([C@@H](C)O)cc2cnc(Nc3ccc(N4CCC(O)CC4)nn3)nc12 [Compound 260]	< 10	≥ 100
CC(C)Nc1nc([C@@H](C)O)cc2cnc(Nc3ccc(N4CCNCC4)nn3)nc12 [Compound 261, (R)-1-(8-(isopropylamino)-2-((6-(piperazin-1-yl)pyridazin-3-yl)amino)pyrido[3,4-d]pyrimidin-6-yl)ethanol]	< 10	≥ 100
CC(C)Nc1nc([C@@H](C)O)cc2cnc(Nc3ccc(CN4CCNCC4=O)cn3)nc12 [Compound 262]	10 to 100	≥ 100
CNCC(C)(C)c1ccc(Nc2ncc3cc([C@@H](C)O)nc(NC(C)C)c3n2)nc1 [Compound 263]	< 10	≥ 100
CNCC(C)(C)c1ccc(Nc2ncc3cc([C@@H](C)O)nc(NC(C)(C)COC)c3n2)nc1 [Compound 264]	< 10	≥ 100
COCC(C)(C)Nc1nc([C@@H](C)O)cc2cnc(Nc3ccc(C(C)N4CCNCC4)cn3)nc12 (stereo partly shown) [Compound 265]	< 10	≥ 100
CO[C@H](C)c1cc2cnc(Nc3ccc(C(C)N4CCNCC4)cn3)nc2c(NC(C)C)n1 (stereo partly shown) [Compound 266]	< 10	≥ 100
CO[C@H](C)c1cc2cnc(Nc3ccc(N4CC[C@H](O)CC4=O)cn3)nc2c(NC(C)C)n1 [Compound 267]	< 10	≥ 100
COCC(C)(C)Nc1nc([C@@H](C)O)cc2cnc(Nc3ccc(N4CC[C@H](O)CC4=O)cn3)nc12 [Compound 268]	10 to 100	≥ 100
CC(C)Oc1nc(C(C)O)cc2cnc(Nc3ccc(N4CCNCC4)nn3)nc12 (stereo not shown) [Compound 269]	< 10	≥ 100
CO[C@H](C)c1cc2cnc(Nc3ccc(CN4CC[C@@H](O)C4)cn3)nc2c(NC(C)C)n1 [Compound 270]	< 10	≥ 100
CO[C@H](C)c1cc2cnc(Nc3ccc(CN4CC[C@@H](F)C4)cn3)nc2c(NC(C)C)n1 [Compound 271]	< 10	≥ 100
CO[C@H](C)c1cc2cnc(Nc3ccc(CN4CC5CC(C4)O5)cn3)nc2c(NC(C)C)n1 [Compound 272]	< 10	≥ 100
CO[C@H](C)c1cc2cnc(Nc3ccc(CN4CCCOCC4)cn3)nc2c(NC(C)C)n1 [Compound 273]	< 10	≥ 100

Now from value to compound:

IC50 (CDK4/cyclin D3) [nM]	IC50 (CDK2/cyclin A2) [nM]	SMILES
< 10	≥ 100	COCC(C)(C)Nc1nc([C@@H](C)O)cc2cnc(Nc3ccc(N4CCNCC4)nn3)nc12 [Compound 212]
< 10	10 to 100	CC(C)Nc1nc(C(F)F)cc2cnc(Nc3ccc(CN4CCNC4=O)cn3)nc12 [Compound 213]
< 10	≥ 100	CO[C@H](C)c1cc2cnc(Nc3ccc(N4CCOCC4)cn3)nc2c(NC(C)C)n1 [Compound 214]
< 10	≥ 100	COCC(C)(C)Nc1nc([C@@H](C)O)cc2cnc(Nc3ccc(C4CCNCC4)cn3)nc12 [Compound 215]
< 10	10 to 100	CC(C)Nc1nc(C(F)F)cc2cnc(Nc3ccc(C4CCNC(=O)C4)cn3)nc12 (stereo not shown) [Compound 218]
< 10	10 to 100	CC(C)Nc1nc(C(F)F)cc2cnc(Nc3ccc(CN4CCCNC4=O)cn3)nc12 [Compound 219]
< 10	≥ 100	CO[C@H](C)c1cc2cnc(Nc3ccc(CCO)cn3)nc2c(NC(C)C)n1 [Compound 223]
< 10	≥ 100	CO[C@H](C)c1cc2cnc(Nc3ccc(C4CCN(C(C)=O)CC4)cn3)nc2c(NC(C)C)n1 [Compound 224]
< 10	≥ 100	COCC(C)(C)Nc1nc([C@@H](C)O)cc2cnc(Nc3ccc(C4CCN(C(C)=O)CC4)cn3)nc12 [Compound 225]
< 10	10 to 100	CC(C)Nc1nc(C(F)F)cc2cnc(Nc3ccc(N4CCCC(O)C4)nn3)nc12 (stereo not shown) [Compound 226]
< 10	≥ 100	CO[C@H](C)c1cc2cnc(Nc3ccc(OCCN(C)C)cn3)nc2c(NC(C)C)n1 [Compound 227]
< 10	≥ 100	CC(C)Nc1nc([C@@H](C)O)cc2cnc(Nc3ccc(CCCN4CCOCC4=O)cn3)nc12 [Compound 229]
< 10	≥ 100	CO[C@H](C)c1cc2cnc(Nc3ccc(C4CCNCC4)cn3)nc2c(NC(C)C)n1 [Compound 232]
< 10	≥ 100	CC(C)Nc1nc([C@@H](C)O)cc2cnc(Nc3ccc(CN4CCOCC4)cn3)nc12 [Compound 233]
< 10	≥ 100	CC(C)Nc1nc([C@@H](C)O)cc2cnc(Nc3ccc(CN4CCNC(=O)C4)cn3)nc12 [Compound 234]
< 10	10 to 100	CC(C)Nc1nc(C(F)F)cc2cnc(Nc3ccc(CN4CCC(C(=O)NS(C)(=O)=O)CC4)cn3)nc12 [Compound 236]
< 10	≥ 100	CC(C)Nc1nc([C@@H](C)O)c(Cl)c2cnc(Nc3ccc(CN4CCNCC4)cn3)nc12 [Compound 238]

IC50 (CDK4/cyclin D3) [nM]	IC50 (CDK2/cyclin A2) [nM]	SMILES
< 10	≥ 100	CCCN1CCN(Cc2ccc(Nc3ncc4cc([C@@H](C)OC)nc(NC(C)C)c4n3)nc2)CC1 [Compound 239]
< 10	≥ 100	CCN1CCN(Cc2ccc(Nc3ncc4cc([C@@H](C)OC)nc(NC(C)C)c4n3)nc2)CC1 [Compound 240]
< 10	≥ 100	COCCNCc1ccc(Nc2ncc3cc([C@@H](C)O)nc(NC(C)C)c3n2)nc1 [Compound 241]
< 10	≥ 100	CCCN1CCN(Cc2ccc(Nc3ncc4cc([C@@H](C)O)nc(NC(C)(C)COC)c4n3)nc2)CC1 [Compound 243]
< 10	≥ 100	CCN1CCN(Cc2ccc(Nc3ncc4cc([C@@H](C)O)nc(NC(C)(C)COC)c4n3)nc2)CC1 [Compound 244]
< 10	≥ 100	CC(C)Nc1nc([C@@H](C)O)cc2cnc(Nc3ccc(OCCN(C)C)cn3)nc12 [Compound 245]
< 10	≥ 100	CO[C@H](C)c1cc2cnc(Nc3ccc(CN4CCNCC4)nn3)nc2c(NC(C)C)n1 [Compound 246]
< 10	≥ 100	CC(C)Nc1nc([C@@H](C)O)c(Cl)c2cnc(Nc3ccc(N4CCNCC4=O)cn3)nc12 [Compound 247]
< 10	≥ 100	CO[C@H](C)c1cc2cnc(Nc3ccc(N4CCN(CCO)CC4)nn3)nc2c(NC(C)C)n1 [Compound 249]
< 10	≥ 100	C[C@@H](O)c1cc2cnc(Nc3ccc(N4CCNCC4)nn3)nc2c(NC2CCOCC2)n1 [Compound 250]
< 10	≥ 100	C[C@@H](O)c1cc2cnc(Nc3ccc(N4CCNCC4)nn3)nc2c(N[C@H]2CCOC2)n1 [Compound 251]
< 10	≥ 100	C[C@@H](O)c1cc2cnc(Nc3ccc(N4CCNCC4)nn3)nc2c(N[C@@H]2CCOC2)n1 [Compound 252]
< 10	≥ 100	C[C@@H](O)c1cc2cnc(Nc3ccc(N4CCNCC4)nn3)nc2c(N[C@H]2CCCOC2)n1 [Compound 253]
< 10	≥ 100	C[C@@H](O)c1cc2cnc(Nc3ccc(N4CCNCC4)nn3)nc2c(N[C@@H]2CCCOC2)n1 [Compound 254]
< 10	≥ 100	C[C@@H](O)c1cc2cnc(Nc3ccc(CN4CCNCC4)cn3)nc2c(NC2CCOCC2)n1 [Compound 255]
< 10	≥ 100	C[C@@H](O)c1cc2cnc(Nc3ccc(CN4CCNCC4)cn3)nc2c(N[C@H]2CCCOC2)n1 [Compound 256]
